Measured values from patent US7998950B2, “Antiviral compounds” (Gilead Sciences, Inc., priority 2008, dated 2011).

Test system: HIV-IIIb
Assay: Antiviral assay in MT-2 cells infected with HIV-IIIb
Assay type: cell-based
Settings: Human immunodeficiency virus 1, IIIB, MT2, 120 h, MT-2 cells infected with HIV-IIIb, m.o.i. 0.01, 10% FBS, 5 days at 37° C., CellTiter-Glo chemiluminescence; read-out: EC50 in MT-2 cells

Q: `O=C(NCCO)c1c(O)c2ncc(Cc3ccc(F)cc3)c3c2n(c1=O)CCC3` [compound 65] was tested. Which EC50 did it give?
A: 1.5 nM

Q: Which EC50 does the source give for `COCCNC(=O)c1c(O)c2ncc(Cc3ccc(F)cc3)c3c2n(c1=O)C=C(C(=O)NC(C)(C)CO)O3` [Example 127] here?
A: 5 nM

Q: `CNC(=O)c1c(O)c2ncc(Cc3ccc(F)cc3)c3c2n(c1=O)C=C(C(=O)NC(CO)CO)O3` [A-94] was tested. Which EC50 did it give?
A: 49 nM

Q: With `O=C(NCC(F)(F)CO)c1c(O)c2ncc(Cc3ccc(F)cc3)c3c2n(c1=O)CC(F)(F)CN3` [Example 149] as the compound, how does the EC50 read?
A: 5 nM

Q: `CNC(=O)c1c(O)c2ncc(Cc3ccc(F)cc3)c3c2n(c1=O)C[C@H](C(=O)NC)O3` [A-50] was tested. Which EC50 did it give?
A: 6.8 nM

Q: Which EC50 does the source give for `O=C(NCCc1ncc[nH]1)c1c(O)c2ncc(Cc3ccc(F)cc3)c3c2n(c1=O)CC(F)(F)CN3` [Example 146] here?
A: 5.5 nM

Q: Which EC50 does the source give for `O=C(NCCN(CCO)CCO)c1c(O)c2ncc(Cc3ccc(F)cc3)c3c2n(c1=O)CCO3` [compound 15] here?
A: 13 nM

Q: For `O=C(NCCN1CCCS1(=O)=O)c1c(O)c2ncc(Cc3ccc(F)cc3)c3c2n(c1=O)CC(F)(F)CN3` [Example 162], which EC50 is on record?
A: 4.6 nM

Q: For `CNC(=O)[C@@H]1Cn2c(=O)c(C(=O)NCCO)c(O)c3ncc(Cc4ccc(F)cc4)c(c32)O1` [Example 176], which EC50 is on record?
A: 23.2 nM

Q: `CNC(=O)c1c(O)c2ncc(Cc3ccc(F)cc3)c3c2n(c1=O)C=C(C(=O)N1CC(F)(F)C1)O3` [A-92] was tested. Which EC50 did it give?
A: 21 nM

Q: How did the EC50 turn out when `CNC(=O)c1c(O)c2ncc(Cc3ccc(F)cc3)c3c2n(c1=O)C=C(C(=O)NCC(C)(C)N(C)C)O3` [Example 119] was run?
A: 2.4 nM

Q: With `CNC[C@H]1Cn2c(=O)c(C(=O)NC)c(O)c3ncc(Cc4ccc(F)cc4)c(c32)O1` [Example 197] as the compound, how does the EC50 read?
A: 32 nM

Q: For `COCCNC(=O)c1c(O)c2ncc(Cc3ccc(F)cc3)c3c2n(c1=O)CCCN3` [compound 52], which EC50 is on record?
A: 8 nM

Q: `CNC(=O)c1c(O)c2ncc(Cc3ccc(F)cc3)c3c2n(c1=O)C[C@H](CC#N)O3` [Example 198] was tested. Which EC50 did it give?
A: 3 nM

Q: Which EC50 does the source give for `CCNC(=O)c1c(O)c2ncc(Cc3ccc(F)cc3)c3c2n(c1=O)C[C@@H](C(=O)NC)O3` [Example 165] here?
A: 8 nM

Q: `CNC(=O)c1c(O)c2ncc(Cc3ccc(F)cc3)c3c2n(c1=O)C[C@@H](CN(C)C(=O)c1nnc(C)o1)O3` [Example 207] was tested. Which EC50 did it give?
A: 4.6 nM

Q: `O=C(NCCN1CCNS1(=O)=O)c1c(O)c2ncc(Cc3ccc(F)cc3)c3c2n(c1=O)CC(F)(F)CN3` [Example 144] was tested. Which EC50 did it give?
A: 20 nM

Q: For `COCCNC(=O)c1c(O)c2ncc(Cc3ccc(F)cc3)c3c2n(c1=O)C=C(C(=O)NCC1(O)CC1)O3` [Example 106], which EC50 is on record?
A: 6 nM

Q: Which EC50 does the source give for `CC(C)(C#N)CNC(=O)c1c(O)c2ncc(Cc3ccc(F)cc3)c3c2n(c1=O)CC(F)(F)CN3` [Example 154] here?
A: 6 nM

Q: How did the EC50 turn out when `CNC(=O)C1=Cn2c(=O)c(C(=O)NCCO)c(O)c3ncc(Cc4ccc(F)cc4)c(c32)O1` [A-89] was run?
A: 23 nM

Q: `CNC(=O)c1c(O)c2ncc(Cc3ccc(F)cc3)c3c2n(c1=O)C=C(C(=O)NC(C)(C)CO)O3` [Example 126] was tested. Which EC50 did it give?
A: 3.3 nM

Q: How did the EC50 turn out when `C[C@@H](CO)NC(=O)c1c(O)c2ncc(Cc3ccc(F)cc3)c3c2n(c1=O)CC(F)(F)CN3` [A-13] was run?
A: 6.5 nM

Q: Which EC50 does the source give for `Cc1cn2c(=O)c(C(=O)NCCO)c(O)c3ncc(Cc4ccc(F)cc4)c1c32` [compound 72] here?
A: 20 nM

Q: With `O=C(NCCCN1CCOCC1)c1c(O)c2ncc(Cc3ccc(F)cc3)c3c2n(c1=O)CC(F)(F)CN3` [Example 153] as the compound, how does the EC50 read?
A: 12 nM

Q: How did the EC50 turn out when `CNC(=O)c1c(O)c2ncc(Cc3ccc(F)cc3)c3c2n(c1=O)C=C(C(=O)NCC1(O)CCCCC1)O3` [Example 142] was run?
A: 1.9 nM

Q: For `CCNC(=O)C1=Cn2c(=O)c(C(=O)NCCC#N)c(O)c3ncc(Cc4ccc(F)cc4)c(c32)O1` [Example 112], which EC50 is on record?
A: 11.7 nM

Q: For `[2H]C([2H])([2H])NC(=O)c1c(O)c2ncc(Cc3ccc(F)cc3)c3c2n(c1=O)C=C(C(=O)NCC)O3` [Example 116], which EC50 is on record?
A: 2.5 nM

Q: How did the EC50 turn out when `CNC(=O)c1c(O)c2ncc(Cc3ccc(F)cc3)c3c2n(c1=O)C[C@@H](CN(C)CCO)O3` [Example 202] was run?
A: 12 nM

Q: For `O=C(NCCO)c1c(O)c2ncc(Cc3ccc(F)cc3)c3c2n(c1=O)CCCO3` [compound 24], which EC50 is on record?
A: 4.6 nM

Q: For `O=C(NCCOCc1ccccc1)c1c(O)c2ncc(Cc3ccc(F)cc3)c3c2n(c1=O)CCN3` [compound 32], which EC50 is on record?
A: 6 nM

Q: For `O=C(NCC1(CO)CC1)c1c(O)c2ncc(Cc3ccc(F)cc3)c3c2n(c1=O)CC(F)(F)CN3` [Example 152], which EC50 is on record?
A: 7 nM

Q: For `O=C(NC1CC1)c1c(O)c2ncc(Cc3ccc(F)cc3)c3c2n(c1=O)CCCN3` [compound 50], which EC50 is on record?
A: 17 nM

Q: `CC(C)(CO)CNC(=O)c1c(O)c2ncc(Cc3ccc(F)cc3)c3c2n(c1=O)CC(F)(F)CN3` [Example 145] was tested. Which EC50 did it give?
A: 9 nM
